From the NIST ThermoML archive (doi:10.1016/j.jct.2005.03.006)
± gives the expanded uncertainty stated by the source.

Experiment: wn = mass fraction of the nth substance listed
Settings: Liquid, Buoyancy - hydrostatic balance

## CCc1ccccc1 [ethylbenzene] + CO
384.45 K, 5000 kPa, w2 = 0.5
  mass density: 744 ± 10 kg/m3
384.45 K, 9900 kPa, w2 = 0.5
  mass density: 754.8 ± 10 kg/m3
384.45 K, 19700 kPa, w2 = 0.5
  mass density: 766.4 ± 10 kg/m3
384.45 K, 29700 kPa, w2 = 0.5
  mass density: 777.5 ± 10 kg/m3
384.45 K, 39300 kPa, w2 = 0.5
  mass density: 786.6 ± 10 kg/m3
384.45 K, 49100 kPa, w2 = 0.5
  mass density: 797.7 ± 10 kg/m3
384.45 K, 58900 kPa, w2 = 0.5
  mass density: 801.6 ± 10 kg/m3
385.75 K, 5000 kPa, w2 = 0.25
  mass density: 763.2 ± 10 kg/m3
385.75 K, 9900 kPa, w2 = 0.25
  mass density: 770.7 ± 10 kg/m3
385.75 K, 19700 kPa, w2 = 0.25
  mass density: 785.7 ± 10 kg/m3
385.75 K, 29700 kPa, w2 = 0.25
  mass density: 797.4 ± 10 kg/m3
385.75 K, 39300 kPa, w2 = 0.25
  mass density: 806 ± 10 kg/m3
385.75 K, 49100 kPa, w2 = 0.25
  mass density: 813 ± 10 kg/m3
385.75 K, 58900 kPa, w2 = 0.25
  mass density: 819.7 ± 10 kg/m3
407.15 K, 5000 kPa, w2 = 0.25
  mass density: 739 ± 10 kg/m3
407.15 K, 9900 kPa, w2 = 0.25
  mass density: 748.1 ± 10 kg/m3
407.15 K, 19700 kPa, w2 = 0.25
  mass density: 765 ± 10 kg/m3
407.15 K, 29700 kPa, w2 = 0.25
  mass density: 778.9 ± 10 kg/m3
407.15 K, 49100 kPa, w2 = 0.25
  mass density: 796.4 ± 10 kg/m3
407.15 K, 58900 kPa, w2 = 0.25
  mass density: 804.1 ± 10 kg/m3
408.15 K, 5000 kPa, w2 = 0.5
  mass density: 713.2 ± 10 kg/m3
408.15 K, 9900 kPa, w2 = 0.5
  mass density: 729.5 ± 10 kg/m3
408.15 K, 19700 kPa, w2 = 0.5
  mass density: 742.4 ± 10 kg/m3
408.15 K, 29700 kPa, w2 = 0.5
  mass density: 754.8 ± 10 kg/m3
408.15 K, 39300 kPa, w2 = 0.5
  mass density: 765.3 ± 10 kg/m3
408.15 K, 49100 kPa, w2 = 0.5
  mass density: 774.1 ± 10 kg/m3
408.15 K, 58900 kPa, w2 = 0.5
  mass density: 783 ± 10 kg/m3
410.05 K, 5000 kPa, w2 = 0.75
  mass density: 691 ± 10 kg/m3
410.05 K, 9900 kPa, w2 = 0.75
  mass density: 701 ± 10 kg/m3
410.05 K, 19700 kPa, w2 = 0.75
  mass density: 714.3 ± 10 kg/m3
410.05 K, 29700 kPa, w2 = 0.75
  mass density: 731.6 ± 10 kg/m3
410.05 K, 39300 kPa, w2 = 0.75
  mass density: 742.6 ± 10 kg/m3
410.05 K, 49100 kPa, w2 = 0.75
  mass density: 753.1 ± 10 kg/m3
410.05 K, 58900 kPa, w2 = 0.75
  mass density: 763 ± 10 kg/m3
433.5 K, 5000 kPa, w2 = 0.25
  mass density: 707.9 ± 10 kg/m3
433.5 K, 9900 kPa, w2 = 0.25
  mass density: 719.4 ± 10 kg/m3
433.5 K, 19700 kPa, w2 = 0.25
  mass density: 739 ± 10 kg/m3
433.5 K, 29700 kPa, w2 = 0.25
  mass density: 755.8 ± 10 kg/m3
433.5 K, 39300 kPa, w2 = 0.25
  mass density: 767 ± 10 kg/m3
433.5 K, 49100 kPa, w2 = 0.25
  mass density: 775 ± 10 kg/m3
433.5 K, 58900 kPa, w2 = 0.25
  mass density: 784.4 ± 10 kg/m3
434.15 K, 5000 kPa, w2 = 0.5
  mass density: 677.4 ± 10 kg/m3
434.15 K, 9900 kPa, w2 = 0.5
  mass density: 695.9 ± 10 kg/m3
434.15 K, 19700 kPa, w2 = 0.5
  mass density: 712.8 ± 10 kg/m3
434.15 K, 29700 kPa, w2 = 0.5
  mass density: 728.6 ± 10 kg/m3
434.15 K, 39300 kPa, w2 = 0.5
  mass density: 741.1 ± 10 kg/m3
434.15 K, 49100 kPa, w2 = 0.5
  mass density: 751.2 ± 10 kg/m3
434.15 K, 58900 kPa, w2 = 0.5
  mass density: 761.4 ± 10 kg/m3
434.35 K, 5000 kPa, w2 = 0.75
  mass density: 654.7 ± 10 kg/m3
434.35 K, 9900 kPa, w2 = 0.75
  mass density: 668.2 ± 10 kg/m3
434.35 K, 19700 kPa, w2 = 0.75
  mass density: 686 ± 10 kg/m3
434.35 K, 29700 kPa, w2 = 0.75
  mass density: 706.5 ± 10 kg/m3
434.35 K, 39300 kPa, w2 = 0.75
  mass density: 719 ± 10 kg/m3
434.35 K, 49100 kPa, w2 = 0.75
  mass density: 730.7 ± 10 kg/m3
434.35 K, 58900 kPa, w2 = 0.75
  mass density: 742.3 ± 10 kg/m3
459.55 K, 5000 kPa, w2 = 0.75
  mass density: 608.3 ± 10 kg/m3
459.55 K, 9900 kPa, w2 = 0.75
  mass density: 628.7 ± 10 kg/m3
459.55 K, 19700 kPa, w2 = 0.75
  mass density: 651.4 ± 10 kg/m3
459.55 K, 29700 kPa, w2 = 0.75
  mass density: 677.4 ± 10 kg/m3
459.55 K, 39300 kPa, w2 = 0.75
  mass density: 692.5 ± 10 kg/m3
459.55 K, 49100 kPa, w2 = 0.75
  mass density: 706.4 ± 10 kg/m3
459.55 K, 58900 kPa, w2 = 0.75
  mass density: 719.5 ± 10 kg/m3
460.25 K, 5000 kPa, w2 = 0.5
  mass density: 634.7 ± 10 kg/m3
460.25 K, 9900 kPa, w2 = 0.5
  mass density: 653.7 ± 10 kg/m3
460.25 K, 19700 kPa, w2 = 0.5
  mass density: 677.5 ± 10 kg/m3
460.25 K, 29700 kPa, w2 = 0.5
  mass density: 697.7 ± 10 kg/m3
460.25 K, 39300 kPa, w2 = 0.5
  mass density: 713.4 ± 10 kg/m3
460.25 K, 49100 kPa, w2 = 0.5
  mass density: 726.4 ± 10 kg/m3
460.25 K, 58900 kPa, w2 = 0.5
  mass density: 738.3 ± 10 kg/m3
460.45 K, 5000 kPa, w2 = 0.25
  mass density: 668.7 ± 10 kg/m3
460.45 K, 9900 kPa, w2 = 0.25
  mass density: 683.4 ± 10 kg/m3
460.45 K, 19700 kPa, w2 = 0.25
  mass density: 708.2 ± 10 kg/m3
460.45 K, 29700 kPa, w2 = 0.25
  mass density: 727.1 ± 10 kg/m3
460.45 K, 39300 kPa, w2 = 0.25
  mass density: 740.5 ± 10 kg/m3
460.45 K, 49100 kPa, w2 = 0.25
  mass density: 751.2 ± 10 kg/m3
460.45 K, 58900 kPa, w2 = 0.25
  mass density: 761.5 ± 10 kg/m3
489.65 K, 5000 kPa, w2 = 0.75
  mass density: 527.2 ± 10 kg/m3
489.65 K, 9900 kPa, w2 = 0.75
  mass density: 571 ± 10 kg/m3
489.65 K, 19700 kPa, w2 = 0.75
  mass density: 607 ± 10 kg/m3
489.65 K, 29700 kPa, w2 = 0.75
  mass density: 640.3 ± 10 kg/m3
489.65 K, 39300 kPa, w2 = 0.75
  mass density: 659.7 ± 10 kg/m3
489.65 K, 49100 kPa, w2 = 0.75
  mass density: 677.3 ± 10 kg/m3
489.65 K, 58900 kPa, w2 = 0.75
  mass density: 692.8 ± 10 kg/m3
491.15 K, 5000 kPa, w2 = 0.5
  mass density: 554 ± 10 kg/m3
491.15 K, 9900 kPa, w2 = 0.5
  mass density: 594.2 ± 10 kg/m3
491.15 K, 19700 kPa, w2 = 0.5
  mass density: 633.2 ± 10 kg/m3
491.15 K, 29700 kPa, w2 = 0.5
  mass density: 656.5 ± 10 kg/m3
491.15 K, 49100 kPa, w2 = 0.5
  mass density: 693 ± 10 kg/m3
491.15 K, 58900 kPa, w2 = 0.5
  mass density: 708.6 ± 10 kg/m3
497.95 K, 5000 kPa, w2 = 0.25
  mass density: 623 ± 10 kg/m3
497.95 K, 9900 kPa, w2 = 0.25
  mass density: 640.4 ± 10 kg/m3
497.95 K, 19700 kPa, w2 = 0.25
  mass density: 671 ± 10 kg/m3
497.95 K, 29700 kPa, w2 = 0.25
  mass density: 693.7 ± 10 kg/m3
497.95 K, 39300 kPa, w2 = 0.25
  mass density: 710.4 ± 10 kg/m3
497.95 K, 49100 kPa, w2 = 0.25
  mass density: 724.5 ± 10 kg/m3
497.95 K, 58900 kPa, w2 = 0.25
  mass density: 736 ± 10 kg/m3
